Assay results published in patent US8551951B2, “Pharmaceutical preparations and methods for inhibiting tumors” (Aenorasis SA Pharmaceuticals and Medical Devices, priority 2000, dated 2013).
Peptide text beside a SMILES is read from it.

What was measured:
PC-3 cells = experiment: DNA fragmentation assay (DNA ladder, apoptosis); assay type: cell-based, human; conditions: for DNA laddering effect: various concentrations
In short: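 PC-3 cells were exposed for 72 h to the polypeptides at various concentrations, PCK3145 at 500 μg/ml in supplemented medium; untreated cells and doxorubicin served as controls. Isolated DNA was run on 1.2% agarose with ethidium bromide, and a DNA ladder was scored as apoptotic fragmentation.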

human PC-3 tumor = experiment: Studies PC3-6 and PC3-12, human PC-3 prostate cancer nude mouse xenograft model; assay type: in vivo, nude mice
From the text: Studies PC3-6 and PC3-12 (FIGS. 26-27) are consecutive group experiments designed to characterize the in vivo activity of PCK3145 in the human PC-3 prostate cancer nude mouse xenograft model and to explore relationships between dose, route and schedule of administration and the efficacy parameters of tumor growth (volume).
PC-3 cells harvested in mid-log phase were inoculated at 5×10^6 cells per mice via the subcutaneous route in the mice's back area. Tumors grown from this inoculum were excised at approximately day 32 to 35 post-tumor implantation (p.t.i) when tumor volume reached 200-300 mm^3 (i.e., cu mm). The necrotic tissue was removed and the viable tumor mass cut into small pieces (approximately 1 to 3 mm^3) were implanted SC in the flank region at two opposite sites of the mouse. Treatment with various concentrations of PCK3145 was initiated at day 3 post-tumor implantation (p.t.i) and was continued daily for 21 days. Subcutaneous injections were done below tumor growth sites. Intra-peritoneal injections were performed in the abdominal region. Intra-venous injections were performed via the lateral tail vein. The experiment was terminated 24 hours after the last treatment. Tumor measurements were taken at Days 11, 14, 16, 18, 20, 22 and 24 post-tumor implantation (p.t.i). Tumor volumes were calculated according to formula (a×b^2×0.5), where a—is the length of the long diameter, and b—is the width of the perpendicular small diameter.
Study No: PC3-6 illustrates the efficacy of PCK3145, injected subcutaneously, in tumor growth retardation in Nude mice, which have received PC-3 implants. Mice were separated in different group each receiving various amounts of PCK3145 (SEQ ID NO: 5) or control reagents. The different groups used in these experiments are illustrated in table 6 below. Each group contained 10 mice. Doxorubicin was administered as single bolus intra-venous injection on days 3 and 11 post-tumor implantation (p.t.i).
Study No: PC3-12 illustrates the efficacy of PCK3145 in tumor growth retardation in Nude mice, which have received PC-3 implants. Mice were separated in different group each receiving various amounts of PCK3145 (SEQ ID NO: 5) or control reagents. PCK3145 was injected either through intra-venous or intra-peritoneal route. The different groups used in these experiments are illustrated in table 7 below. Each group contained 9 mice.

[1] = test system: human prostate cancer cells PC-3; experiment: MTS assay, growth inhibitory effect on PC-3 cells; assay type: cell-based; conditions: for growth inhibition of PC-3 cells (FIG. 10): 72 hours
From the text: Cell proliferation was monitored on PC-3 cells using the MTS/PMS (phenazine methosulfate) kit (Promega), which primarily measures mitochondrial activity of live cells. The basic principle of this method involves the fact that the mitochondrial enzymes of the live cells metabolize the MTS/PMS dyes forming a brown colored precipitate which can be measured as optical density (OD) by absorption at 490 nm in a spectrophotometer. Therefore, the OD values are proportional to the number of living cells. In addition, monitoring of cell morphology was also performed. Cell morphology would be indicative of their health status. For example, viable cells would appear adherent and spread out whereas dead cells would be in suspension in the media and would appear granular and round.
PC-3 cells (ATCC, Lot AT06) used in these experiments were at a passage number lower or equal to 70 (n≧70). Cells were seeded in Costar 96 well cell culture flat bottom plates in RPMI supplemented media containing 50 μg/ml of bovine serum albumin (BSA) and 0.1 μM FeSO4. Peptide was diluted in the same media. Cells were continuously exposed to the polypeptides of the present invention for 72 hours without changing media. Native PSP94 or rHuPSP94 concentrated two fold were directly added to wells and diluted to 1× in order to minimize cell manipulation and avoid detachment.
Native PSP94, rHuPSP94, polypeptide 22-36 and PB111 polypeptide (scrambled polypeptide) were also included in this experiment as controls. Cell proliferation assay was performed on either PC-3 cells or normal fibroblasts (used here as control) using the MTS/PMS kit (Promega). Four thousand cells (FIGS. 9 and 10) or three thousand (FIG. 11) cells were seeded in Costar 96 well cell culture flat bottom plates in RPMI supplemented media containing 50 μg/ml of bovine serum albumin (BSA) and 0.1 μM FeSO4. In addition, monitoring of cell morphology was also performed.
This assay measures the mitochondrial activity of the live cells. The basic principle of this method involves the fact that the mitochondrial enzymes of the live cells metabolize the MTS/PMS dyes forming a brown colored precipitate which can be measured as optical density (OD) by absorption at 490 nm in a spectrophotometer. Therefore, the OD values are proportional to the number of living cells.
In addition, a visual observation of the cells was also done to check the cell morphology, which could also be indicative of cell growth. The following conditions for MTS assay were used: PC-3 (ATCC, Lot AT06), passage number n≧70, cell line adapted to grow in serum-free OPTI-MEM and in RPMI supplemented with BSA (50 μg/ml) and Ferrous Sulfate (0.1 μM), continuous exposure for up to 72 hours without changing media (i.e., adding PCK3145 at 2× concentration directly to wells and diluting it 1:2 to 1× to minimize cell manipulation and avoid detachment).

Compound: polypeptide 7-21: PSP94 derived synthetic polypeptide from the amino terminus end, SEQ ID NO: 4 (NEGVPGDSTRKCMDL; Polypeptide 7-21)
- DNA laddering effect (PC-3 cells; 72 hours): induced a DNA laddering effect characteristic of apoptosis
- anti-tumor effect in the PC-3 nude mouse xenograft model (human PC-3 tumor; mouse, in vivo): also observed in the PC-3 nude mouse xenograft model
- growth inhibition of PC-3 cells (FIG. 10) [1]: significant growth inhibition

Compound: C[C@@H](O)[C@H](NC(=O)[C@H](CCC(=O)O)NC(=O)[C@H](Cc1ccc(O)cc1)NC(=O)[C@H](CS)NC(=O)[C@@H](NC(=O)[C@H](CS)NC(=O)[C@@H](NC(=O)[C@H](CCC(=O)O)NC(=O)[C@H](CS)NC(=O)[C@H](CC(N)=O)NC(=O)[C@H](CC(=O)O)NC(=O)[C@@H](NC(=O)[C@H](CCC(N)=O)NC(=O)[C@H](Cc1c[nH]c2ccccc12)NC(=O)[C@@H](N)CCC(=O)O)[C@@H](C)O)[C@@H](C)O)[C@@H](C)O)C(=O)O [PCK3145, EWQTDNCETCTCYET] (H-EWQTDNCETCTCYET-OH; N-terminus and C-terminus assumed)
- DNA laddering effect (FIG. 7 lane 5) (PC-3 cells; 22.5 μM): DNA laddering effect
- DNA laddering effect (FIG. 7 lane 6) (PC-3 cells; 45 μM): DNA laddering effect
- DNA fragmentation (FIG. 25) (PC-3 cells; 500 μg/ml, 72 hours, supplemented media): resulted in DNA fragmentation
- DNA laddering effect (PC-3 cells; 72 hours): induced a DNA laddering effect characteristic of apoptosis
- anti-tumor effect on subcutaneous injection at a site distant from tumor (scruff of the neck) (human PC-3 tumor; 10 μg/kg/day and 100 μg/kg/day): might not be efficacious enough
- tumor growth (volume), study PC3-6 (human PC-3 tumor; 10 μg/kg/day s.c. below tumor sites, daily for 21 days, p=0.001 to 0.002 vs PBS): significant PC-3 tumor growth retardation
- tumor growth (volume), study PC3-12 (human PC-3 tumor; 100 μg/kg/day intra-venous, days 13, 17 and 20): significant tumor growth retardation
- tumor growth (volume), study PC3-12 (human PC-3 tumor; 10, 500 and 1000 μg/kg/day intra-venous): No significant anti-tumor effect
- tumor growth (volume), study PC3-12 (human PC-3 tumor; 500 and 1000 μg/kg/day intra-venous): trend towards significance
- inhibitory effect on the growth of PC-3 cells ([1]; 0 to 400 μg/ml, tests repeated 5 times): dose dependent inhibitory effect
- growth inhibition of PC-3 cells (FIG. 10) [1]: significant growth inhibition
